Reference: patent publication US20110020235A1, “MR METHODS OF GRADING A TUMOR USING AN IMAGING MEDIUM THAT COMPRISES HYPERPOLARISED 13C-PYRUVATE” (priority 2007, published 2011)

Test: T1 relaxation of 13C1-pyruvate in human full blood
Format: physicochemical
Conditions: human full blood at 37° C.

- T1 relaxation: about 42 s
SMILES: CC(=O)C(=O)O [13C1-pyruvate]
